{"source": "patent US20260125357A1", "about": "“LACTATE ENHANCING COMPOUNDS AND USES THEREOF” (GLIAPHARM SA, priority 2022, published 2026)", "key": {"primary astrocytes": {"test_system": "primary astrocytes", "test": "MTT mitochondrial activity assay in primary astrocytes", "type": "cell-based, mouse", "conditions": "different concentrations, after 1.5 h or 24 h", "description": "Primary cultures of cerebrocortical astrocytes were obtained from 1 to 2-day-old OF1 mouse pups (Charles River Laboratories). Briefly, cortices were isolated and minced in small pieces under a dissecting microscope. The cells were incubated for 30 min at 37° C. in a solution containing 20 U/ml papain, 1 mM L-cysteine and 10 kU/ml DNase I. After dissociation, papain activity was stopped by the addition of fetal calf serum (FCS). Single-cell suspension was then obtained by mechanical dissociation, which consisted in cells trituration in a DMEM D7777 medium supplemented with 44 mm NaHCO3, 10 ml/L antibiotic/antimycotic solution and 10% FCS. The cells were seeded at an average density of ˜10′000 cells/cm^2 on poly-D-lysine coated 96- or 12-well culture plates, depending on their use, and grown in DMEM D7777 medium supplemented with 44 mm NaHCO3, 10 ml/L antibiotic/antimycotic solution and 10% FCS at 37° C. in a humidified atmosphere containing 5% CO2/95% air. Culture medium was renewed twice a week. Cells were stimulated and harvested between DIV14 and DIV17, when confluence and cell growth were optimal.\nTo monitor mitochondrial activity in astrocytes, which is linked to the metabolic process of glycolysis and production of lactate, astrocytes in 96-well plates were stimulated for 24 h (37° C. 5% CO2/95% air) with the compounds of the invention ranging from 10 nM to 10 μM.\nAfter stimulation, 5 mg/ml thiazol blue tetrazolium bromide (MTT) in D5030 medium complemented with 5 mM D-glucose and 44 mM sodium bicarbonate (pH 7.2) was added to each well, and cells were incubated for 4 h at 37° C. (5% CO2). The medium was then removed and the amount of reduced MTT, i.e formazan, solubilized in DMSO (50 μl/well) was determined using a spectrophotometer (absorbance of 570 nm).\nThe mitochondrial activity was monitored in MTT colorimetric assay in primary astrocytes treated with Compounds (1), (2), (3), (4) (5), (9) and (10) at different concentrations after 1.5 h (FIG. 2 A, B, D, E, F, C, H, respectively) or 24 h (FIG. 2 H, I, K, L, M, J, N, respectively)."}, "[1]": {"test_system": "Wild-type (WT) and GLUT1-DS transgenic mice", "test": "Grip strength test in WT and GLUT1-DS transgenic mice", "type": "in vivo, mouse", "conditions": "10 mg/kg, after rotarod session", "from_the_text": "Heterozygous transgenic mice on 129/SvJ genetic background in which glucose transporter 1 (GLUT1) has been knocked down were used (GLUT1(+/−)) (Wang et al., 2016, Human Molecular Genetics, 15(7)). GLUT1-deficiency syndrome (GLUT1-DS) is a prototypic hypometabolic diseases caused by the mutation of GLUT1 and decreased levels of glucose and lactate in the brain (Tang et al., 2019, Annals of Clinical and Translational Neurology 6(9)). Mating colonies were composed of wild-type female mice and GLUT1-DS male mice, or GLUT1-DS female mice and wild-type male mice. F1 pups were genotyped after ear punching at weaning using PCR to determine genotype. Mice of 2 to 3 months of age were used.\nMotor strength was measured on the grip strength test (Bioseb) after rotarod session. Wild-type (WT) and GLUT1-DS transgenic mice were placed with 4 paws on the grid and maximal grip strength was recorded over 2 sessions with 5 minutes apart. Maximal grip strength over the 2 sessions was recorded."}, "[2]": {"test_system": "human iPSC-derived astrocytes", "test": "Uptake of 2-DG in human iPSC-derived astrocytes", "type": "cell-based", "conditions": "treated for 1.5 hours", "description": "Astrocytes grown on 12-well plates and transfected with either scramble siRNA or GLUT1 siRNA were used. 1 day after having replaced transfection medium (DIV13), 2DG uptake was measured after treatment for 30 min with Vehicle (0.1% DMSO) or with the compound of the invention (1) to (5) (concentrations of 0.1 to 10 μM). During treatment, 1 mM 2DG was added to the medium for assessment of 2DG uptake. At the end of the stimulation, medium was removed and replaced with 150 μl NaOH 0.1M, and stored at −20° C. After thawing, cells were collected using cell scraper and heated for 40 min at 85° C. Then, 150 ul HCl 0.1M and TAE buffer 200 mM was added to each condition. 20 μl were added to a transparent 96-well plate and 2DG was quantified by addition of a reaction solution containing 50 mM TAE, 50 mM KCl, 0.02% BSA, 0.1 mM NADP, 0.2 U/ml diaphorase, 2 mM resazurin and 20 U/ml glucose-6-phosphate dehydrogenase. Concentration of 2DG in samples were calculated by comparison with standard curve of deoxy-glucose-6-phophate ranging from 0 to 1 nmoles.\nHuman iPSC-derived astrocytes were purchased from NCardia (NCyte Astrocytes) and were plated at a density of ˜10′000 cells/cm^2 in 96-well or 12-well plates, according to the manufacturer's instructions and using the recommended media. […] Uptake of 2-DG and release of lactate were quantified as described previously."}}}
{"compound": "COc1cc2ccnc(Nc3ccc(S(C)(=O)=O)cc3)c2cc1OC", "note": "[Compound 2, 6,7-dimethoxy-N-(4-methylsulfonylphenyl)isoquinolin-1-amine]", "values": [{"measurement": "mitochondrial activity (MTT colorimetric assay)", "setting": "primary astrocytes", "value": "none of the selected compounds had direct effect on mitochondrial activity"}, {"measurement": "muscle strength (grip strength)", "setting": "[1]", "value": "did not lead to any difference on muscle strength"}, {"measurement": "uptake of 2-DG", "setting": "[2]", "value": "increased uptake of 2-DG"}]}
